Measured values reported in publication PMC9585939, “Unveiling a family of spiro-β-lactams with anti-HIV and antiplasmodial activity via phosphine-catalyzed [3+2] annulation of 6-alkylidene-penicillanates and allenoates” (Frontiers in Chemistry, 2022).

What was measured:
[1] = Cellular viability assay (alamarBlue) in TZM-bl cells; format: cell-based; conditions: human, 50% cytotoxic concentration
Procedure: Before the antiviral activity screening, all spirocyclopentene-β-lactams were assayed for their in vitro cytotoxic activity (CC50) in TZM-bl cells (Table 4).
TZM-bl cells (AIDS Research and Reference Reagent Program, National Institutes of Health, United States) were cultured in complete growth medium consisting of Dulbecco’s Minimal Essential Medium (DMEM) supplemented with 10% fetal bovine serum (FBS), 100 U/ml of penicillin–streptomycin (Gibco/Invitrogen, United States), 1 mM of sodium pyruvate (Gibco/Invitrogen, United States), 2 mM of L-glutamine (Gibco/Invitrogen, United States), and 1 mM of non-essential amino acids (Gibco/Invitrogen, United States). Cell cultures were maintained at 37°C in 5% CO2.
The in vitro cytotoxicity of test compounds was evaluated in TZM-bl cells using alamarBlue cell viability reagent (Life Technologies, United States), according to the instructions of the manufacturer. The cells were cultured in the presence and absence of serial-fold dilutions of the test compounds. Each dilution of each compound was performed in triplicate wells. Medium controls (only growth medium), cell controls (cells without test compound), and cytotoxicity controls (a compound that kills cells) were employed in each assay.

HIV-1 SG3.1 = assay: microbe, parasite or virus in culture; conditions: for IC50 / IC90 / inhibition at 25 µg/mL: Human immunodeficiency virus 1, TZM-bl; for IC50 / IC90: 48 h; for IC50: read-out: IC50 HIV-1, TZM-bl cells, 48 h; for IC90: read-out: IC90 HIV-1; for inhibition at 25 µg/mL: read-out: MPI (%) 25 μg/mL; for Therapeutic index (CC50/IC50): HIV-1, CC50 in TZM-bl cells
Excerpt: (§1) The HIV-1 SG3.1 is a reference subtype B strain that uses the CXCR4 coreceptor. It was obtained by transfection of HEK293T cells with pSG3.1 plasmid using jetPRIME transfection reagent (Polyplus-transfection SA, Illkirch, France), according to the instructions of the manufacturer.
(§2) Briefly, TZM-bl cells were infected with 200 TCID50 of HIV-1 or HIV-2 in the presence of serial-fold dilutions of the compounds in the growth medium, supplemented with diethylaminoethyl-dextran (DEAE-dextran). After 48 h of infection, luciferase expression was quantified with Pierce Firefly Luc One-Step Glow Assay Kit (ThermoFisher Scientific, Rockford, United States), according to the instructions of the manufacturer. For each compound dilution, the assay was set up in triplicate wells. Virus controls, cell controls, and inhibitors controls (drugs with a known action against each virus) were employed.

HIV-2 03PTHCC19 = assay: microbe, parasite or virus in culture; conditions: Human immunodeficiency virus 2, TZM-bl; for IC50 / IC90: 48 h; for IC50: read-out: IC50 HIV-2; for IC90: read-out: IC90 HIV-2; for inhibition at 25 µg/mL: read-out: MPI (%) 25 μg/mL
Excerpt: as §1, §2

P. berghei hepatic stage = assay: In vitro hepatic infection of Huh7 cells by luciferase-expressing P. berghei; format: cell-based; conditions: Plasmodium berghei, Huh-7; hepatic stage, Huh7 cells, 48 h after infection
Procedure: The inhibitory activity of test compounds on in vitro hepatic infection by P. berghei was determined by comparing the parasite load in compound- and solvent-treated P. berghei-infected Huh7 cells. Infection load was assessed by measurement of luminescence intensity in Huh7 cells infected, with a firefly luciferase-expressing P. berghei line, as previously described ([Ploemen et al., 2009]; [António et al., 2017]). Briefly, Huh7 cells were seeded in 96-well plates (1.0 × 10^4 cells per well) the day before drug treatment and infection. The medium was replaced by another medium containing the appropriate concentration of each compound approximately 1 h prior to infection with sporozoites freshly obtained through disruption of salivary glands of infected female Anopheles stephensi mosquitoes. Sporozoite addition was followed by centrifugation at 1,800 g for 5 min. Parasite infection load was measured 48 h after infection by a bioluminescence assay (Biotium). Cell confluence, a surrogate measure of compound toxicity to Huh7 cells, was assessed by fluorescence measurements using the alamarBlue assay, according to the manufacturer’s instructions. […] Specifically, non-linear regression analysis was employed to fit the normalized results of the dose-response curves, and IC50 values were determined using GraphPad Prism 8.0 (GraphPad Software, La Jolla, California, United States).

CC1(C)SC2N(C(=O)C23CC=C(C(=O)OCC=Cc2ccccc2)C3C(=O)c2ccccc2)C1C(=O)OC(c1ccccc1)c1ccccc1 (stereo not drawn) [Compound 9n, (1’R,2’R)-Benzhydryl spiro[(2-benzoyl-3-cinnamyloxycarbonylcyclopent-3-ene)-1’,6-penicillanate]]
CC50 [1]: 62300 nM | IC50 (HIV-1 SG3.1): 17 nM | IC90 (HIV-1 SG3.1): 46 nM | inhibition at 25 µg/mL (HIV-1 SG3.1): 100% | IC50 (HIV-2 03PTHCC19): 16 nM | IC90 (HIV-2 03PTHCC19): 64 nM | inhibition at 25 µg/mL (HIV-2 03PTHCC19): 100% | IC50 (P. berghei hepatic stage): 1580 ± 191 nM | melting point: 67.8 to 69.4 °C

CC1(C)SC2N(C(=O)C23CC=C(C(=O)OCc2ccccc2)C3C(=O)c2ccc(Br)cc2)C1C(=O)OC(c1ccccc1)c1ccccc1 (stereo not drawn) [Compound 12c, (1’R,2’R)-Benzhydryl spiro[(2-(4-bromobenzoyl)-3-benzyloxycarbonylcyclopent-3-ene)-1’,6-penicillanate]]
CC50 [1]: 55000 nM | IC50 (HIV-1 SG3.1): 50 nM | IC90 (HIV-1 SG3.1): 116 nM | inhibition at 25 µg/mL (HIV-1 SG3.1): 87% | IC50 (HIV-2 03PTHCC19): 93 nM | IC90 (HIV-2 03PTHCC19): 159 nM | inhibition at 25 µg/mL (HIV-2 03PTHCC19): 100% | IC50 (P. berghei hepatic stage): 1000 to 10000 nM | melting point: 156.5 to 158.5 °C

CC1(C)SC2N(C(=O)C23CC=C(C(=O)OCc2ccccc2)C3C(=O)c2ccco2)C1C(=O)OC(c1ccccc1)c1ccccc1 (stereo not drawn) [Compound 12i, (1’R,2’R)-Benzhydryl spiro[(2-furoyl-3-benzyloxycarbonylcyclopent-3-ene)-1’,6-penicillanate]]
CC50 [1]: 78300 nM | Therapeutic index (CC50/IC50) (HIV-1 SG3.1): 559.29 | IC50 (HIV-1 SG3.1): 140 nM | IC90 (HIV-1 SG3.1): 223 nM | inhibition at 25 µg/mL (HIV-1 SG3.1): 87% | melting point: 76.5 to 78.5 °C

CC1(C)SC2N(C(=O)C23C(C(=O)OCc2ccccc2)=CCC3C(=O)c2ccc(F)cc2)C1C(=O)OC(c1ccccc1)c1ccccc1 (stereo not drawn) [Compound 13a, (1′R,2′R)-benzhydryl spiro[(2-(4-fluorobenzoyl)-5-benzyloxycarbonylcyclopent-4-ene)-1′,6-penicillanate]]
CC50 [1]: 64800 nM | inhibition at 25 µg/mL (HIV-1 SG3.1): 0% | melting point: 73.9 to 75.9 °C

CC1(C)SC2N(C(=O)C23C(C(=O)OCc2ccccc2)=CCC3C(=O)c2ccc(Cl)cc2)C1C(=O)OC(c1ccccc1)c1ccccc1 (stereo not drawn) [Compound 13b, (1’R,2’R)-Benzhydryl spiro[(2-(4-chlorobenzoyl)-5-benzyloxycarbonylcyclopent-4-ene)-1’,6-penicillanate]]
CC50 [1]: 63700 nM | inhibition at 25 µg/mL (HIV-1 SG3.1): 0% | melting point: 116.3 to 118.3 °C

CC1(C)SC2N(C(=O)C23C(C(=O)OCc2ccccc2)=CCC3C(=O)c2ccc(Br)cc2)C1C(=O)OC(c1ccccc1)c1ccccc1 (stereo not drawn) [Compound 13c, (1’R,2’R)-Benzhydryl spiro[(2-(4-bromobenzoyl)-5-benzyloxycarbonylcyclopent-4-ene)-1’,6-penicillanate]]
CC50 [1]: 50600 nM | inhibition at 25 µg/mL (HIV-1 SG3.1): 0% | melting point: 115.9 to 117.9 °C

CC1(C)SC2N(C(=O)C23C(C(=O)OCc2ccccc2)=CCC3C(=O)c2ccc([N+](=O)[O-])cc2)C1C(=O)OC(c1ccccc1)c1ccccc1 (stereo not drawn) [Compound 13d, (1’R,2’R)-Benzhydryl spiro[(2-(4-nitrobenzoyl)-5-benzyloxycarbonylcyclopent-4-ene)-1’,6-penicillanate]]
CC50 [1]: 73800 nM | inhibition at 25 µg/mL (HIV-1 SG3.1): 0% | melting point: 122.7 to 124.7 °C

CC1(C)SC2N(C(=O)C23C(C(=O)OCc2ccccc2)=CCC3C(=O)c2ccc(C(F)(F)F)cc2)C1C(=O)OC(c1ccccc1)c1ccccc1 (stereo not drawn) [Compound 13e, (1’R,2’R)-Benzhydryl spiro[(2-(4-trifluoromethylbenzoyl)-5-benzyloxycarbonylcyclopent-4-ene)-1’,6-penicillanate]]
CC50 [1]: 54700 nM | inhibition at 25 µg/mL (HIV-1 SG3.1): 0% | melting point: 141.1 to 143.1 °C

CC1(C)SC2N(C(=O)C23C(C(=O)OCc2ccccc2)=CCC3C(=O)c2cc(F)cc(F)c2)C1C(=O)OC(c1ccccc1)c1ccccc1 (stereo not drawn) [Compound 13f, (1’R,2’R)-Benzhydryl spiro[(2-(3,5-difluorobenzoyl)-5-benzyloxycarbonylcyclopent-4-ene)-1’,6-penicillanate]]
CC50 [1]: 58800 nM | inhibition at 25 µg/mL (HIV-1 SG3.1): 0% | melting point: 134.8 to 136.8 °C

CC1(C)SC2N(C(=O)C23C(C(=O)OCc2ccccc2)=CCC3C(=O)c2ccc3ccccc3c2)C1C(=O)OC(c1ccccc1)c1ccccc1 (stereo not drawn) [Compound 13h, (1’R,2’R)-Benzhydryl spiro[(2-naphthoyl-5-benzyloxycarbonylcyclopent-4-ene)-1’,6-penicillanate]]
CC50 [1]: 56200 nM | inhibition at 25 µg/mL (HIV-1 SG3.1): 0% | melting point: 90.8 to 92.8 °C

CC1(C)SC2N(C(=O)C23C(C(=O)OCc2ccccc2)=CCC3C(=O)c2ccco2)C1C(=O)OC(c1ccccc1)c1ccccc1 (stereo not drawn) [Compound 13i, (1’R,2’R)-Benzhydryl spiro[(2-furoyl-5-benzyloxycarbonylcyclopent-4-ene)-1’,6-penicillanate]]
CC50 [1]: 61200 nM | inhibition at 25 µg/mL (HIV-1 SG3.1): 0% | melting point: 112.8 to 114.8 °C

Cc1ccc(COC(=O)C2=CCC3(C(=O)N4C(C(=O)OC(c5ccccc5)c5ccccc5)C(C)(C)SC43)C2C(=O)c2ccc(Cl)cc2)cc1 (stereo not drawn) [Compound 14e, (1’R,2’R)-Benzhydryl spiro[(2-(4-chlorobenzoyl)-3-(4-methylbenzyloxycarbonyl)cyclopent-3-ene)-1’,6-penicillanate]]
CC50 [1]: 100000 nM | Therapeutic index (CC50/IC50) (HIV-1 SG3.1): 474.41 | IC50 (HIV-1 SG3.1): 211 nM | IC90 (HIV-1 SG3.1): 720 nM | inhibition at 25 µg/mL (HIV-1 SG3.1): 94% | melting point: 79.5 to 81.5 °C

CC1(C)SC2N(C(=O)C23CC=C(C(=O)OCC=Cc2ccccc2)C3C(=O)c2ccc(Cl)cc2)C1C(=O)OC(c1ccccc1)c1ccccc1 (stereo not drawn) [Compound 14f, (1’R,2’R)-Benzhydryl spiro[(2-(4-chlorobenzoyl)-3-cinnamyloxycarbonylcyclopent-3-ene)-1’,6-penicillanate]]
CC50 [1]: 87500 nM | Therapeutic index (CC50/IC50) (HIV-1 SG3.1): 1305.67 | IC50 (HIV-1 SG3.1): 67 nM | IC90 (HIV-1 SG3.1): 198 nM | inhibition at 25 µg/mL (HIV-1 SG3.1): 97% | melting point: 81.7 to 83.7 °C

Cc1ccc(COC(=O)C2=CCC3(C(=O)N4C(C(=O)OC(c5ccccc5)c5ccccc5)C(C)(C)SC43)C2C(=O)c2ccc(Br)cc2)cc1 (stereo not drawn) [Compound 14h, (1’R,2’R)-Benzhydryl spiro[(2-(4-bromobenzoyl)-3-(4-methylbenzyloxycarbonyl)cyclopent-3-ene)-1’,6-penicillanate]]
CC50 [1]: 72100 nM | Therapeutic index (CC50/IC50) (HIV-1 SG3.1): 649.73 | IC50 (HIV-1 SG3.1): 111 nM | IC90 (HIV-1 SG3.1): 297 nM | inhibition at 25 µg/mL (HIV-1 SG3.1): 93% | melting point: 74.9 to 76.9 °C

CC1(C)SC2N(C(=O)C23CC=C(C(=O)OCC=Cc2ccccc2)C3C(=O)c2ccc(Br)cc2)C1C(=O)OC(c1ccccc1)c1ccccc1 (stereo not drawn) [Compound 14i, (1’R,2’R)-Benzhydryl spiro[(2-(4-bromobenzoyl)-3-cinnamyloxycarbonylcyclopent-3-ene)-1’,6-penicillanate]]
CC50 [1]: 66900 nM | Therapeutic index (CC50/IC50) (HIV-1 SG3.1): 467.62 | IC50 (HIV-1 SG3.1): 143 nM | IC90 (HIV-1 SG3.1): 305 nM | inhibition at 25 µg/mL (HIV-1 SG3.1): 95% | melting point: 89.1 to 91.1 °C
